The results in this text go back to PubChem BioAssay (NCI).

Test systems include CAKI-1 renal; COLO 205 colon; EKVX NSCLC; HCC-2998 colon; HT29 colon; LOX IMVI melanoma; M14 melanoma; MCF7 breast; NCI-H460 lung; MALME-3M melanoma.
Holding throughout (experiment): growth of human tumour cells (NCI), 48 h

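Values below derive from 48-hour exposures of cells grown in 96-well plates, with endpoints linearly interpolated between the two concentrations bracketing the appropriate inhibition level. Here, GI50 denotes the concentration required for 50% inhibition of growth. TGI denotes the concentration required for complete inhibition of growth.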

As for `O=[N+]([O-])c1ccc(N=Nc2c(Cl)cc(O)cc2Cl)cc1`, the GI50 in the test on CAKI-1 renal is 2.26 µM; with COLO 205 colon, 1.82 µM; in the test on EKVX NSCLC it was 1.94 µM; with HCC-2998 colon, 3.15 µM; in the test with HT29 colon, 3.7 µM; with LOX IMVI melanoma, 1.73 µM. In addition, the GI50 in the test on M14 melanoma was 1.95 µM; in the test with MCF7 breast it was 1.17 µM; with NCI-H460 lung it was 1.41 µM. The TGI was 5.79 µM in the test on CAKI-1 renal; 4.17 µM with COLO 205 colon; 5.57 µM in the test on EKVX NSCLC; 10.8 µM with HCC-2998 colon; 12.6 µM in the test with HT29 colon; 10.6 µM in the test on LOX IMVI melanoma. The TGI was found to be 4.86 µM in the test on M14 melanoma, 6.43 µM in the test on MCF7 breast and 4.77 µM in the test on NCI-H460 lung.

With `CCN(CC)CCCNc1n[n+]([O-])c2ccccc2[n+]1[O-]`, the TGI with CAKI-1 renal was over 100 µM; with COLO 205 colon it was 40.1 µM; in the test on HCC-2998 colon, 15.7 µM; in the test with HT29 colon it was 85.3 µM; in the test with M14 melanoma it was over 100 µM; in the test with MALME-3M melanoma, 25.3 µM. Further, the TGI worked out at 42.4 µM in the test on MCF7 breast and 27.4 µM in the test on NCI-H460 lung.

On to `Cc1nc2ccccc2c(/C=C/c2ccccc2)c1C(=O)/C=C/c1ccc(C(F)(F)F)cc1`, for which the GI50 with CAKI-1 renal was 1.14 µM; in the test on COLO 205 colon it was 2.13 µM; in the test on EKVX NSCLC, 1.56 µM; in the test on HCC-2998 colon it was 1.4 µM; in the test with HT29 colon, 0.632 µM; in the test with LOX IMVI melanoma it was 1.09 µM. The GI50 is 1.6 µM with M14 melanoma, 1.71 µM in the test on MALME-3M melanoma and 0.631 µM in the test with MCF7 breast. Moreover, the TGI in the test with CAKI-1 renal came to 2.44 µM; in the test with COLO 205 colon, 5.4 µM; with EKVX NSCLC, 3.11 µM; in the test with HCC-2998 colon it was 2.9 µM; with HT29 colon, 4.46 µM; in the test with LOX IMVI melanoma it was 2.34 µM. The TGI with M14 melanoma is 3.94 µM; in the test with MALME-3M melanoma it was 3.18 µM; with MCF7 breast it was 2.66 µM.

For the compound `COc1ccc2c(c1)C(=O)c1c-2c(N2CCN(C(=O)CCNCCNCCN)CC2)nc2ccccc12`, the GI50 with CAKI-1 renal is 18.8 µM; in the test on COLO 205 colon it was 2.54 µM; in the test with HT29 colon, 2.43 µM; in the test on M14 melanoma, 2.03 µM; in the test with MALME-3M melanoma, 2.78 µM; in the test with MCF7 breast, 5.11 µM. In addition, the GI50 in the test with NCI-H460 lung was 2.4 µM. The TGI was 47.8 µM in the test with CAKI-1 renal; 6.34 µM in the test on COLO 205 colon; 4.88 µM in the test with HT29 colon; 3.83 µM in the test on M14 melanoma; 6.9 µM in the test with MALME-3M melanoma; 21.6 µM in the test on MCF7 breast. For the same compound, in the test on NCI-H460 lung, the TGI came to 5.42 µM.

For `CCN(CCO)CCCC(C)Nc1ccnc2cc(Cl)ccc12` (centres undefined), the GI50 in the test on CAKI-1 renal, in the test on COLO 205 colon, in the test with EKVX NSCLC, in the test with HT29 colon, in the test on LOX IMVI melanoma and in the test on M14 melanoma was over 100 µM each time. The GI50 in the test with MALME-3M melanoma, in the test with MCF7 breast and in the test with NCI-H460 lung was over 100 µM in each case. Besides, the TGI in the test on CAKI-1 renal, with COLO 205 colon, in the test on EKVX NSCLC, in the test with HT29 colon, in the test on LOX IMVI melanoma and with M14 melanoma was over 100 µM each time. Also, the TGI in the test with MALME-3M melanoma, with MCF7 breast and in the test on NCI-H460 lung was over 100 µM throughout.

For `O=C(Nc1cccc(C(F)(F)F)c1)c1ccc(NC2=C(Cl)C(=O)N(Cc3ccccc3)C2=O)cc1`, the GI50 in the test with CAKI-1 renal was 1.65 µM; in the test on COLO 205 colon, 21.9 µM; in the test on EKVX NSCLC, 23.5 µM; in the test on HCC-2998 colon it was 1.29 µM; with HT29 colon, 13.6 µM; with LOX IMVI melanoma, 2.45 µM. The values for the GI50 with M14 melanoma, in the test on MCF7 breast and in the test with NCI-H460 lung were 9.26 µM, 2.02 µM and 5.91 µM, respectively. Further, the TGI in the test with CAKI-1 renal is 3.24 µM; in the test with COLO 205 colon, 49.8 µM; in the test with EKVX NSCLC it was 54.4 µM; in the test with HCC-2998 colon it was 2.85 µM; in the test on HT29 colon it was 52 µM; in the test on LOX IMVI melanoma, 6.6 µM. Moreover, the TGI in the test with M14 melanoma was 21.7 µM; in the test with MCF7 breast it was 4.54 µM; in the test with NCI-H460 lung it was 57 µM.

Consider `O=S(=O)(O)n1ccnc1` (tested in a mixture with another compound), for which the TGI in the test on CAKI-1 renal, with COLO 205 colon, in the test with EKVX NSCLC, with HT29 colon, in the test with LOX IMVI melanoma and in the test on M14 melanoma was over 100 µM throughout. Besides, the TGI in the test with MALME-3M melanoma, with MCF7 breast and in the test with NCI-H460 lung was over 100 µM in each case.

As for `O=C1OC(c2ccc(Cl)cc2)=N/C1=C\c1ccccc1`, the TGI in the test with CAKI-1 renal, in the test with COLO 205 colon, with EKVX NSCLC, with HCC-2998 colon, in the test with HT29 colon and in the test on LOX IMVI melanoma was over 100 µM in each case. Besides, the TGI in the test with M14 melanoma, in the test on MCF7 breast and with NCI-H460 lung was over 100 µM throughout.

On to `C=CCOc1ccc(N)c([N+](=O)[O-])c1`, for which the TGI with CAKI-1 renal, with COLO 205 colon, in the test with EKVX NSCLC, in the test on HCC-2998 colon, in the test on HT29 colon and in the test with LOX IMVI melanoma was over 100 µM each time. Besides, the TGI with M14 melanoma, with MALME-3M melanoma and in the test with MCF7 breast was over 100 µM throughout.

On to `O=C1c2ccccc2C(=O)c2c1oc1c2c(=O)[nH]c2ccc(Cl)cc21`, for which the GI50 with COLO 205 colon is 10.5 µM; with EKVX NSCLC, 0.249 µM; with HCC-2998 colon it was 0.637 µM; with HT29 colon, 3.7 µM; with LOX IMVI melanoma, 0.321 µM; in the test with M14 melanoma, 0.397 µM. The GI50 in the test on MALME-3M melanoma was 0.226 µM; in the test with MCF7 breast, 0.23 µM; in the test on NCI-H460 lung it was 0.22 µM. In addition, the TGI with COLO 205 colon came out at 27.6 µM; with EKVX NSCLC it was 2.44 µM; in the test with HCC-2998 colon it was 2.55 µM; in the test with HT29 colon, 12.9 µM; in the test on LOX IMVI melanoma, 1.3 µM; in the test on M14 melanoma it was 1.53 µM. Further, the TGI in the test on MALME-3M melanoma stood at 0.441 µM; in the test with MCF7 breast it was 1.05 µM; in the test on NCI-H460 lung, 0.489 µM.
